Test results from ChEMBL document CHEMBL1649229, “Efficacy of high doses of daptomycin versus alternative therapies against experimental foreign-body infection by methicillin-resistant Staphylococcus aureus” (Antimicrob Agents Chemother, 2009).
The source made the active and inactive calls. No cut-off for these calls is given here.

Columns and labels:
Staphylococcus aureus [1] = test: Bactericidal activity against log-phase methicillin-resistant Staphylococcus aureus HUSA 304 after 24 hrs by time kill analysis in presence of 50 mg/L calcium ions; type: functional; settings: HUSA 304, 24 h
Staphylococcus aureus [2] = test: Bactericidal activity against stationary-phase methicillin-resistant Staphylococcus aureus HUSA 304 after 24 hrs by time kill analysis in presence of 50 mg/L calcium ions; type: functional; settings: HUSA 304, 24 h
Staphylococcus aureus [3] = test: Antimicrobial activity against methicillin-resistant Staphylococcus aureus HUSA 304 infected in Wistar rat assessed as decrease in bacterial load in tissue cage fluid at 50 mg/kg, ip administered every 12 hrs for 7 days measured on day 8 post treatment; type: functional; settings: route intraperitoneal
Staphylococcus aureus [4] = test: Antimicrobial activity against log-phase methicillin-resistant Staphylococcus aureus HUSA 304 assessed as resistant bacteria in tissue cage fluid selected on 4 ug/ml of compound measured on day 11 post treatment; type: functional, organism-based
Staphylococcus aureus [5] = test: Antimicrobial activity against methicillin-resistant Staphylococcus aureus HUSA 304 infected in Wistar rat assessed as decrease in bacterial load in tissue cage fluid at 50 mg/kg, ip administered every 12 hrs for 7 days measured on day 11 post treatment; type: functional; settings: route intraperitoneal
Staphylococcus aureus [6] = test: Antimicrobial activity against log-phase methicillin-resistant Staphylococcus aureus HUSA 304 assessed as resistant bacteria on coverslip selected on 4 ug/ml of compound measured on day 11 post treatment; type: functional, organism-based
Staphylococcus aureus [7] = test: Antimicrobial activity against log-phase methicillin-resistant Staphylococcus aureus HUSA 304 assessed as resistant bacteria in tissue cage fluid selected on 4 ug/ml of compound measured on day 8 post treatment; type: functional, organism-based

Structure (SMILES)	MBC (Staphylococcus aureus [1]) [µg/mL]	MBC (Staphylococcus aureus [2]) [µg/mL]	log10cfu (Staphylococcus aureus [3])	Activity (Staphylococcus aureus [4])	log10cfu (Staphylococcus aureus [5])	Activity (Staphylococcus aureus [6])	Activity (Staphylococcus aureus [7])
CN[C@H](CC(C)C)C(=O)N[C@H]1C(=O)N[C@@H](CC(N)=O)C(=O)N[C@H]2C(=O)N[C@H]3C(=O)N[C@H](C(=O)N[C@H](C(=O)O)c4cc(O)cc(O)c4-c4cc3ccc4O)[C@H](O)c3ccc(c(Cl)c3)Oc3cc2cc(c3O[C@@H]2O[C@H](CO)[C@@H](O)[C@H](O)[C@H]2O[C@H]2C[C@](C)(N)[C@H](O)[C@H](C)O2)Oc2ccc(cc2Cl)[C@H]1O [VANCOMYCIN]	4	> 32					
CC(=O)NC[C@H]1CN(c2ccc(N3CCOCC3)c(F)c2)C(=O)O1 [LINEZOLID]	> 32	> 32	1.06	Active	0.93	Active	Active
